Values after ≈ are worked out from the molar mass of the structure shown. Like-named read-outs stand apart in the source and are kept apart here. Where a SMILES comes first, the peptide text is derived from it.
How the values were obtained:
P. aeruginosa = experiment: microbe, parasite or virus in culture; assay type: cell-based, Pseudomonas aeruginosa
Outline: (§1)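 Broth microdilution in MH medium: bacterial strains diluted to 2×10^6 CFU were mixed with equal volumes of peptide serially diluted twofold in MH medium.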

E. coli = assay type: cell-based, Escherichia coli; settings: E. coli
Outline: (§2)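 Strains in MH medium at 2×10^6 CFU/ml were mixed with peptide diluted stepwise (2:1) from its MIC, then antibiotic dilutions in MH medium were added to give the antibiotic MIC. The reversed set-up, peptide titrated against fixed antibiotic, gave the peptide MIC.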

MDREC 1229 [1] = assay type: cell-based, Escherichia coli
Outline: as §2

MDRAB 12035 [2] = experiment: MIC of antibiotic during combined treatment with antimicrobial peptide; assay type: cell-based, Acinetobacter baumannii
Outline: as §2

S. epidermidis = experiment: microbe, parasite or virus in culture; assay type: cell-based, Staphylococcus epidermidis
Outline: as §1

MDREC 1229 [3] = experiment: MIC of antibiotic during combined treatment with antimicrobial peptide; assay type: cell-based, Escherichia coli
Outline: as §2

MRSA 3126 = assay type: cell-based, Staphylococcus aureus; settings: 3126
Outline: as §1

MRSA 3114 = assay type: cell-based, Staphylococcus aureus; settings: 3114
Outline: as §1

B. subtilis = experiment: microbe, parasite or virus in culture; assay type: cell-based, Bacillus subtilis
Outline: as §1

MDREC 1238 = assay type: cell-based, Escherichia coli
Outline: as §1

MDRAB 12035 [4] = experiment: MIC of antimicrobial peptide during combined treatment with antibiotic; assay type: cell-based, Acinetobacter baumannii
Outline: as §2

A. baumannii [5] = experiment: as above; assay type: cell-based, Acinetobacter baumannii
Outline: as §2

MDRAB 12035 [6] = experiment: microbe, parasite or virus in culture; assay type: cell-based, Acinetobacter baumannii
Outline: as §1

A. baumannii [7] = experiment: microbe, parasite or virus in culture; assay type: cell-based, Acinetobacter baumannii
Outline: as §1

MDRPA 2002 = assay type: cell-based, Pseudomonas aeruginosa
Outline: as §1

MDRPA 2003 = assay type: cell-based, Pseudomonas aeruginosa
Outline: as §1

S. typhimurium = experiment: microbe, parasite or virus in culture; assay type: cell-based, Salmonella typhimurium
Outline: as §1

S. aureus = experiment: microbe, parasite or virus in culture; assay type: cell-based, Staphylococcus aureus
Outline: as §1

MDRAB 12036 = assay type: cell-based, Acinetobacter baumannii
Outline: as §1

MDRST 8007 = experiment: Minimal inhibitory concentration (MIC), single agent; assay type: cell-based, Salmonella typhimurium; settings: agent alone
Outline: as §1

[8] = with Erythromycin […] (Conc./MIC 1)
[9] = peptide treatment concentration 1 μg/ml
[10] = peptide treatment concentration 2 μg/ml
[11] = peptide treatment concentration 4 μg/ml
[12] = peptide treatment concentration 6 μg/ml
[13] = peptide treatment concentration 8 μg/ml
[14] = peptide treatment concentration 16 μg/ml
[15] = peptide treatment concentration 32 μg/ml
[16] = peptide treatment concentration 64 μg/ml
[17] = erythromycin 4 μg/ml (Conc./MIC 1/8)
[18] = erythromycin 8 μg/ml (Conc./MIC 1/4)
[19] = erythromycin 16 μg/ml (Conc./MIC 1/2)
[20] = erythromycin 32 μg/ml (Conc./MIC 1)
[21] = vancomycin 512 μg/ml (Conc./MIC 1/2)
[22] = vancomycin 1024 μg/ml (Conc./MIC 1)

CC[C@H](C)[C@H](NC(=O)[C@H](CCCCN)NC(=O)[C@H](Cc1c[nH]c2ccccc12)NC(=O)[C@@H](N)CCCNC(=N)N)C(=O)N[C@@H](Cc1ccccc1)C(=O)N[C@@H](CCCCN)C(=O)N[C@@H](CCCCN)C(=O)N[C@H](C(=O)N1CCC[C@H]1C(=O)N[C@@H](CCCCN)C(=O)N[C@@H](Cc1ccccc1)C(=O)N[C@@H](CC(C)C)C(=O)N[C@@H](Cc1c[nH]cn1)C(=O)N[C@@H](CO)C(=O)N[C@@H](Cc1c[nH]c2ccccc12)C(=O)N[C@@H](CCCCN)C(=O)N[C@@H](CCCCN)C(=O)N[C@@H](Cc1ccccc1)C(N)=O)[C@@H](C)CC [PapMA-3, RWK IFK KIP KFL HSW KKF-NH2] (H-RWKIFKKIPKFLHSWKKF-NH2; N-terminus assumed)
Minimal inhibitory concentration MIC (P. aeruginosa): 16 µg/mL (≈ 6.62 µM) | Peptide MIC (E. coli; [8]): 0 µg/mL | Peptide MIC (E. coli; with Linezolid […] (Conc./MIC 1)): 0 µg/mL | Peptide MIC (E. coli; with Vancomycin 1024 μg/ml (Conc./MIC 1)): 0 µg/mL | Peptide MIC (MDREC 1229 [1]; [8]): 0 µg/mL | Peptide MIC (MDREC 1229 [1]; with Linezolid 512 μg/ml (Conc./MIC 1)): 0 µg/mL | Erythromycin MIC during combined treatment with peptide (MDRAB 12035 [2]; [9]): 32 µg/mL | Linezolid MIC during combined treatment with peptide (MDRAB 12035 [2]; [9]): >128 µg/mL | Vancomycin MIC during combined treatment with peptide (MDRAB 12035 [2]; [9]): >128 µg/mL | Erythromycin MIC during combined treatment with peptide (MDRAB 12035 [2]; [10]): 16 µg/mL | Linezolid MIC during combined treatment with peptide (MDRAB 12035 [2]; [10]): 128 µg/mL | Vancomycin MIC during combined treatment with peptide (MDRAB 12035 [2]; [10]): >128 µg/mL | Erythromycin MIC during combined treatment with peptide (MDRAB 12035 [2]; [11]): 8 µg/mL | Linezolid MIC during combined treatment with peptide (MDRAB 12035 [2]; [11]): 32 µg/mL | Vancomycin MIC during combined treatment with peptide (MDRAB 12035 [2]; [11]): 128 µg/mL | Erythromycin MIC during combined treatment with peptide (MDRAB 12035 [2]; [12]): 4 µg/mL | Linezolid MIC during combined treatment with peptide (MDRAB 12035 [2]; [12]): 32 µg/mL | Vancomycin MIC during combined treatment with peptide (MDRAB 12035 [2]; [12]): 32 µg/mL | Erythromycin MIC during combined treatment with peptide (MDRAB 12035 [2]; [13]): 0.25 µg/mL | Linezolid MIC during combined treatment with peptide (MDRAB 12035 [2]; [13]): 16 µg/mL | Vancomycin MIC during combined treatment with peptide (MDRAB 12035 [2]; [13]): 16 µg/mL | Erythromycin MIC during combined treatment with peptide (MDRAB 12035 [2]; [14]): 0 µg/mL | Linezolid MIC during combined treatment with peptide (MDRAB 12035 [2]; [14]): 0 µg/mL | Vancomycin MIC during combined treatment with peptide (MDRAB 12035 [2]; [14]): 0 µg/mL | Erythromycin MIC during combined treatment with peptide (MDRAB 12035 [2]; [15]): 0 µg/mL | Linezolid MIC during combined treatment with peptide (MDRAB 12035 [2]; [15]): 0 µg/mL | Vancomycin MIC during combined treatment with peptide (MDRAB 12035 [2]; [15]): 0 µg/mL | Erythromycin MIC during combined treatment with peptide (MDRAB 12035 [2]; [16]): 0 µg/mL | Linezolid MIC during combined treatment with peptide (MDRAB 12035 [2]; [16]): 0 µg/mL | Vancomycin MIC during combined treatment with peptide (MDRAB 12035 [2]; [16]): 0 µg/mL | Minimal inhibitory concentration MIC (S. epidermidis): >128 µg/mL | Antibiotic MIC, Erythromycin (MDREC 1229 [3]; [9]): 128 µg/mL | Antibiotic MIC, Linezolid (MDREC 1229 [3]; [9]): >128 µg/mL | Antibiotic MIC, Vancomycin (MDREC 1229 [3]; [9]): >128 µg/mL | Antibiotic MIC, Erythromycin (MDREC 1229 [3]; [10]): 32 µg/mL | Antibiotic MIC, Linezolid (MDREC 1229 [3]; [10]): 64 µg/mL | Antibiotic MIC, Vancomycin (MDREC 1229 [3]; [10]): >128 µg/mL | Antibiotic MIC, Erythromycin (MDREC 1229 [3]; [11]): 32 µg/mL | Antibiotic MIC, Linezolid (MDREC 1229 [3]; [11]): 64 µg/mL | Antibiotic MIC, Vancomycin (MDREC 1229 [3]; [11]): >128 µg/mL | Antibiotic MIC, Erythromycin (MDREC 1229 [3]; [12]): 16 µg/mL | Antibiotic MIC, Linezolid (MDREC 1229 [3]; [12]): 32 µg/mL | Antibiotic MIC, Vancomycin (MDREC 1229 [3]; [12]): >128 µg/mL | Antibiotic MIC, Erythromycin (MDREC 1229 [3]; [13]): 4 µg/mL | Antibiotic MIC, Linezolid (MDREC 1229 [3]; [13]): 16 µg/mL | Antibiotic MIC, Vancomycin (MDREC 1229 [3]; [13]): 128 µg/mL | Antibiotic MIC, Erythromycin (MDREC 1229 [3]; [14]): 0.25 µg/mL | Antibiotic MIC, Linezolid (MDREC 1229 [3]; [14]): 4 µg/mL | Antibiotic MIC, Vancomycin (MDREC 1229 [3]; [14]): 16 µg/mL | Antibiotic MIC, Erythromycin (MDREC 1229 [3]; [15]): 0 µg/mL | Antibiotic MIC, Linezolid (MDREC 1229 [3]; [15]): 0 µg/mL | Antibiotic MIC, Vancomycin (MDREC 1229 [3]; [15]): 0 µg/mL | Antibiotic MIC, Erythromycin (MDREC 1229 [3]; [16]): 0 µg/mL | Antibiotic MIC, Linezolid (MDREC 1229 [3]; [16]): 0 µg/mL | Antibiotic MIC, Vancomycin (MDREC 1229 [3]; [16]): 0 µg/mL | Minimal inhibitory concentration MIC (MRSA 3126): >128 µg/mL | Minimal inhibitory concentration MIC (MRSA 3114): >128 µg/mL | Minimal inhibitory concentration MIC (B. subtilis): >128 µg/mL | Minimal inhibitory concentration MIC (MDREC 1238): 64 µg/mL (≈ 26.5 µM) | Peptide MIC during treatment with erythromycin (MDRAB 12035 [4]; [17]): 4 µg/mL | Peptide MIC during treatment with erythromycin (MDRAB 12035 [4]; [18]): 4 µg/mL | Peptide MIC during treatment with erythromycin (MDRAB 12035 [4]; [19]): 2 µg/mL | Peptide MIC during treatment with erythromycin (MDRAB 12035 [4]; [20]): 0 µg/mL | Peptide MIC during treatment with linezolid (MDRAB 12035 [4]; linezolid 64 μg/ml (Conc./MIC 1/8)): 4 µg/mL | Peptide MIC during treatment with linezolid (MDRAB 12035 [4]; linezolid 512 μg/ml (Conc./MIC 1)): 0 µg/mL | Peptide MIC during treatment with linezolid (MDRAB 12035 [4]; linezolid […] (Conc./MIC 1/2)): 1 µg/mL | Peptide MIC during treatment with linezolid (MDRAB 12035 [4]; linezolid […] (Conc./MIC 1/4)): 2 µg/mL | Peptide MIC during treatment with vancomycin (MDRAB 12035 [4]; [21]): 2 µg/mL | Peptide MIC during treatment with vancomycin (MDRAB 12035 [4]; [22]): 0.25 µg/mL | Peptide MIC during treatment with vancomycin (MDRAB 12035 [4]; vancomycin […] (Conc./MIC 1/4)): 2 µg/mL | Peptide MIC during treatment with vancomycin (MDRAB 12035 [4]; vancomycin […] (Conc./MIC 1/8)): 4 µg/mL | Peptide MIC during treatment with antibiotic (A. baumannii [5]; [17]): 4 µg/mL | Peptide MIC during treatment with antibiotic (A. baumannii [5]; [18]): 4 µg/mL | Peptide MIC during treatment with antibiotic (A. baumannii [5]; [19]): 2 µg/mL | Peptide MIC during treatment with antibiotic (A. baumannii [5]; [20]): 0 µg/mL | Peptide MIC during treatment with antibiotic (A. baumannii [5]; linezolid 32 μg/ml (Conc./MIC 1/8)): 4 µg/mL | Peptide MIC during treatment with antibiotic (A. baumannii [5]; linezolid 64 μg/ml (Conc./MIC 1/4)): 2 µg/mL | Peptide MIC during treatment with antibiotic (A. baumannii [5]; linezolid […] (Conc./MIC 1)): 0 µg/mL | Peptide MIC during treatment with antibiotic (A. baumannii [5]; linezolid […] (Conc./MIC 1/2)): 1 µg/mL | Peptide MIC during treatment with antibiotic (A. baumannii [5]; [21]): 0.25 µg/mL | Peptide MIC during treatment with antibiotic (A. baumannii [5]; [22]): 0 µg/mL | Peptide MIC during treatment with antibiotic (A. baumannii [5]; vancomycin […] (Conc./MIC 1/4)): 0.25 µg/mL | Peptide MIC during treatment with antibiotic (A. baumannii [5]; vancomycin […] (Conc./MIC 1/8)): 2 µg/mL | Minimal inhibitory concentration MIC (MDRAB 12035 [6]): 16 µg/mL (≈ 6.62 µM) | Peptide MIC, peptide alone (MDRAB 12035 [6]): 16 µg/mL | Minimal inhibitory concentration MIC (A. baumannii [7]): 16 µg/mL (≈ 6.62 µM) | Peptide MIC, peptide alone (A. baumannii [7]): 16 µg/mL | Antibacterial activity relative to PapMA-1 (A. baumannii [7]; A. baumannii and antibiotic-resistant strains thereof): 4 times | Minimal inhibitory concentration MIC (MDRPA 2002): 16 µg/mL (≈ 6.62 µM) | Minimal inhibitory concentration MIC (MDRPA 2003): 16 µg/mL (≈ 6.62 µM) | Minimal inhibitory concentration MIC (S. typhimurium): 32 µg/mL (≈ 13.2 µM) | Minimal inhibitory concentration MIC (S. aureus): >128 µg/mL | Minimal inhibitory concentration MIC (MDRAB 12036): 16 µg/mL (≈ 6.62 µM) | Minimal inhibitory concentration MIC (MDRST 8007): 32 µg/mL (≈ 13.2 µM)

Source: patent US11214594B2, “Antimicrobial peptide having synergistic antibacterial effect with antibiotics on multidrug resistant bacteria, and use thereof” (priority 2016, dated 2022)
